Assay results: patent publication US20240398828A1, “HETERO-ATOM CONTAINING COMPOUNDS AND USES THEREOF” (Kumquat Biosciences Inc., priority 2021, published 2024)

What was measured:
PTPN1 (i.e., PTP1B) = target: T1, PTPN1 (i.e., PTP1B) (Homo sapiens, UniProt P18031); experiment: Phosphatase activity assay (DiFMUP substrate), PTP1B; assay type: biochemical; details: compounds binned ≤1 uM or >1 uM
T1 sequence (P18031 1-435): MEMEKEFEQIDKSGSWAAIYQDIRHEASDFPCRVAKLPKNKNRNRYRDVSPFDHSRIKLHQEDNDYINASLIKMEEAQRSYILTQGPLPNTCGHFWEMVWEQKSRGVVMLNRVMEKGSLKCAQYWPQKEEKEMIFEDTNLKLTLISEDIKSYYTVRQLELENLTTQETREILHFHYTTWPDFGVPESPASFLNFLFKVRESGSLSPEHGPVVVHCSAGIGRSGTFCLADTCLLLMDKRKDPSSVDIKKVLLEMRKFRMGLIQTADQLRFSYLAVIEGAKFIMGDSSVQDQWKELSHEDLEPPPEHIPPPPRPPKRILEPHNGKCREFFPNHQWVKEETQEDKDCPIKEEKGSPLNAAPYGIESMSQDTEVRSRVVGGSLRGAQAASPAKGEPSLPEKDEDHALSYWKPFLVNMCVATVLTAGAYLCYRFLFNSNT
Method in brief: (§1)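 Continuous fluorogenic readout of DiFMUP dephosphorylation at room temperature, substrate set at Km for each phosphatase (about 45 μM in the PTPN2 assay). The buffer contains 1 mM DTT and 0.001% Tween-20, pH 7.5.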

PTPN2 (i.e., TC-PTP) = target: T2, PTPN2 (i.e., TC-PTP) (Homo sapiens, UniProt P17706); experiment: Phosphatase activity assay (DiFMUP substrate), PTPN2; assay type: biochemical; details: compounds binned ≤1 uM or >1 uM
T2 sequence (P17706 1-415): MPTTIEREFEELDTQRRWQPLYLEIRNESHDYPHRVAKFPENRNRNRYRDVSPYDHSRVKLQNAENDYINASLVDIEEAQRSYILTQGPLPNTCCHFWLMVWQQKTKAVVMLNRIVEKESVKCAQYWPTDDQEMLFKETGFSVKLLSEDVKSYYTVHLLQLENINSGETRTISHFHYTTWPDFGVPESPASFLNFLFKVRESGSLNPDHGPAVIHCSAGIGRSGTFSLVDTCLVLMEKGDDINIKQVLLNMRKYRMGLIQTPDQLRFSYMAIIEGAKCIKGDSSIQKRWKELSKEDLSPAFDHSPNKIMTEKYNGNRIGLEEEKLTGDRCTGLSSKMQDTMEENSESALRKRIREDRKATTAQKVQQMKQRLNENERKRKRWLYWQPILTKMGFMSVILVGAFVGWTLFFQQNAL
Method in brief: as §1

Row | SMILES | IC50 (PTPN1 (i.e., PTP1B)) [nM] | IC50 (PTPN2 (i.e., TC-PTP)) [nM]
1 | COc1ccc(-c2cnc(O)nc2)c(F)c1N1CC(=O)NS1(=O)=O [Compound 105, 5-(2-fluoro-3-(2-hydroxypyrimidin-5-yl)-6-methoxyphenyl)-1,2,5-thiadiazolidin-3-one 1,1-dioxide] | > 1000 | > 1000
2 | O=C1CN(c2c(O)ccc(-c3cc[nH]c3)c2F)S(=O)(=O)N1 [Compound 129, 5-(2-fluoro-6-hydroxy-3-(1H-pyrrol-3-yl)phenyl)-1,2,5-thiadiazolidin-3-one 1,1-dioxide] | ≤ 1000 | ≤ 1000
3 | COc1cc(-c2ccc(O)c(N3CC(=O)NS3(=O)=O)c2F)c(F)cn1 [Compound 206, 5-(2-fluoro-3-(5-fluoro-2-methoxypyridin-4-yl)-6-hydroxyphenyl)-1,2,5-thiadiazolidin-3-one 1,1-dioxide] | ≤ 1000 | ≤ 1000
4 | CC(C)Cc1cc(-c2ccc(O)c(N3CC(=O)NS3(=O)=O)c2F)[nH]n1 [Compound 370, 5-(2-fluoro-6-hydroxy-3-(3-isobutyl-1H-pyrazol-5-yl)phenyl)-1,2,5-thiadiazolidin-3-one 1,1-dioxide] | ≤ 1000 | ≤ 1000
5 | O=C1CN(c2c(O)ccc(-c3cn(C4CC4)nc3F)c2F)S(=O)(=O)N1 [Compound 440, 5-(3-(1-cyclopropyl-3-fluoro-1H-pyrazol-4-yl)-2-fluoro-6-hydroxyphenyl)-1,2,5-thiadiazolidin-3-one 1,1-dioxide] | ≤ 1000 | ≤ 1000
6 | O=C1CN(c2c(O)ccc(-c3cc(C4(C(F)F)CC4)n[nH]3)c2F)S(=O)(=O)N1 [Compound 526, 5-(3-(3-(1-(difluoromethyl)cyclopropyl)-1H-pyrazol-5-yl)-2-fluoro-6-hydroxyphenyl)-1,2,5-thiadiazolidin-3-one 1,1-dioxide] | ≤ 1000 | ≤ 1000
7 | COc1cc(-c2ccc(O)c(N3CC(=O)NS3(=O)=O)c2F)ccn1 [Compound 107, 5-(2-fluoro-6-hydroxy-3-(2-methoxypyridin-4-yl)phenyl)-1,2,5-thiadiazolidin-3-one 1,1-dioxide] | ≤ 1000 | ≤ 1000
8 | N#CNC(=N)N1CCC=C(c2ccc(O)c(N3CC(=O)NS3(=O)=O)c2F)C1 [Compound 535, N-cyano-5-(3-(1,1-dioxido-4-oxo-1,2,5-thiadiazolidin-2-yl)-2-fluoro-4-hydroxyphenyl)-3,6-dihydropyridine-1(2H)-carboximidamide] | ≤ 1000 | ≤ 1000
9 | CCC(CC)n1cnc(-c2ccc(O)c(N3CC(=O)NS3(=O)=O)c2F)c1 [Compound 350, 5-(2-fluoro-6-hydroxy-3-(1-(pentan-3-yl)-1H-imidazol-4-yl)phenyl)-1,2,5-thiadiazolidin-3-one 1,1-dioxide] | ≤ 1000 | ≤ 1000
10 | O=C1CN(c2c(O)ccc(-c3cccc(N4CCCC4)c3)c2F)S(=O)(=O)N1 [Compound 122, 5-(2-fluoro-4-hydroxy-3′-(pyrrolidin-1-yl)-[1,1′-biphenyl]-3-yl)-1,2,5-thiadiazolidin-3-one 1,1-dioxide] | ≤ 1000 | ≤ 1000
11 | O=C1CN(c2c(O)ccc(-c3cc(C4=CCOC4)n[nH]3)c2F)S(=O)(=O)N1 [Compound 362, 5-(3-(3-(2,5-dihydrofuran-3-yl)-1H-pyrazol-5-yl)-2-fluoro-6-hydroxyphenyl)-1,2,5-thiadiazolidin-3-one 1,1-dioxide] | ≤ 1000 | ≤ 1000
12 | Cc1nsc(-c2ccc(O)c(N3CC(=O)NS3(=O)=O)c2F)n1 [Compound 425, 5-(2-fluoro-6-hydroxy-3-(3-methyl-1,2,4-thiadiazol-5-yl)phenyl)-1,2,5-thiadiazolidin-3-one 1,1-dioxide] | ≤ 1000 | ≤ 1000
13 | O=C1CN(c2c(O)ccc(-c3cc(C4CC4(F)F)n[nH]3)c2F)S(=O)(=O)N1 (stereo not shown) [Compound 364, 5-(3-(3-(2,2-difluorocyclopropyl)-1H-pyrazol-5-yl)-2-fluoro-6-hydroxyphenyl)-1,2,5-thiadiazolidin-3-one 1,1-dioxide] | ≤ 1000 | ≤ 1000
14 | CS(=O)(=O)n1nc(-c2ccc(O)c(N3CC(=O)NS3(=O)=O)c2F)cc1C1CC1 [Compound 498, 5-(3-(5-cyclopropyl-1-(methylsulfonyl)-1H-pyrazol-3-yl)-2-fluoro-6-hydroxyphenyl)-1,2,5-thiadiazolidin-3-one 1,1-dioxide] | ≤ 1000 | ≤ 1000
15 | O=C1CN(c2c(O)ccc(-c3cc(C#CC4CCCCC4)n[nH]3)c2F)S(=O)(=O)N1 [Compound 253, 5-(3-(3-(cyclohexylethynyl)-1H-pyrazol-5-yl)-2-fluoro-6-hydroxyphenyl)-1,2,5-thiadiazolidin-3-one 1,1-dioxide] | ≤ 1000 | ≤ 1000
16 | CC1CC(c2ccc(O)c(N3CC(=O)NS3(=O)=O)c2F)CN1 (stereo not shown) [Compound 407, 5-(2-fluoro-6-hydroxy-3-(5-methylpyrrolidin-3-yl)phenyl)-1,2,5-thiadiazolidin-3-one 1,1-dioxide] | ≤ 1000 | ≤ 1000
17 | CN1CCN(c2ccc(-c3ccc(O)c(N4CC(=O)NS4(=O)=O)c3F)cn2)CC1 [Compound 202, 5-(2-fluoro-6-hydroxy-3-(6-(4-methylpiperazin-1-yl)pyridin-3-yl)phenyl)-1,2,5-thiadiazolidin-3-one 1,1-dioxide] | ≤ 1000 | ≤ 1000
18 | O=C1CN(c2c(O)ccc(-c3cnn(C4CCC(F)(F)CC4)c3)c2F)S(=O)(=O)N1 [Compound 446, 5-(3-(1-(4,4-difluorocyclohexyl)-1H-pyrazol-4-yl)-2-fluoro-6-hydroxyphenyl)-1,2,5-thiadiazolidin-3-one 1,1-dioxide] | ≤ 1000 | ≤ 1000
19 | O=C1CN(c2c(O)ccc(-c3cc(C4CC4)n(CC4CCNC4)n3)c2F)S(=O)(=O)N1 (stereo not shown) [Compound 329, 5-(3-(5-cyclopropyl-1-(pyrrolidin-3-ylmethyl)-1H-pyrazol-3-yl)-2-fluoro-6-hydroxyphenyl)-1,2,5-thiadiazolidin-3-one 1,1-dioxide] | ≤ 1000 | ≤ 1000
20 | O=C1CN(c2c(O)ccc(-c3cc(N4CCC5(COC5)C4)n[nH]3)c2F)S(=O)(=O)N1 [Compound 431, 5-(3-(3-(2-oxa-6-azaspiro[3.4]octan-6-yl)-1H-pyrazol-5-yl)-2-fluoro-6-hydroxyphenyl)-1,2,5-thiadiazolidin-3-one 1,1-dioxide] | ≤ 1000 | ≤ 1000
21 | CC(C)CNCc1cc(-c2ccc(O)c(N3CC(=O)NS3(=O)=O)c2F)nn1C [Compound 288, 5-(2-fluoro-6-hydroxy-3-(5-((isobutylamino)methyl)-1-methyl-1H-pyrazol-3-yl)phenyl)-1,2,5-thiadiazolidin-3-one 1,1-dioxide] | ≤ 1000 | ≤ 1000
22 | CCC1(c2cc(-c3ccc(O)c(N4CC(=O)NS4(=O)=O)c3F)[nH]n2)CC1 [Compound 369, 5-(3-(3-(1-ethylcyclopropyl)-1H-pyrazol-5-yl)-2-fluoro-6-hydroxyphenyl)-1,2,5-thiadiazolidin-3-one 1,1-dioxide] | ≤ 1000 | ≤ 1000
23 | O=C1CN(c2c(O)ccc(C3=CCC(NS(=O)(=O)C4CC4)CC3)c2F)S(=O)(=O)N1 (stereo not shown) [Compound 317, N-(3′-(1,1-dioxido-4-oxo-1,2,5-thiadiazolidin-2-yl)-2′-fluoro-4′-hydroxy-2,3,4,5-tetrahydro-[1,1′-biphenyl]-4-yl)cyclopropanesulfonamide] | ≤ 1000 | ≤ 1000
24 | O=C1CN(c2c(O)ccc(-c3ccc(-c4ccccc4)nc3)c2F)S(=O)(=O)N1 [Compound 120, 5-(2-fluoro-6-hydroxy-3-(6-phenylpyridin-3-yl)phenyl)-1,2,5-thiadiazolidin-3-one 1,1-dioxide] | ≤ 1000 | ≤ 1000
25 | CC(C)CCn1cnc(-c2ccc(O)c(N3CC(=O)NS3(=O)=O)c2F)c1 [Compound 216, 5-(2-fluoro-6-hydroxy-3-(1-isopentyl-1H-imidazol-4-yl)phenyl)-1,2,5-thiadiazolidin-3-one 1,1-dioxide] | ≤ 1000 | ≤ 1000
26 | CN(C)CCn1cc(-c2ccc(O)c(N3CC(=O)NS3(=O)=O)c2F)cn1 [Compound 148, 5-(3-(1-(2-(dimethylamino)ethyl)-1H-pyrazol-4-yl)-2-fluoro-6-hydroxyphenyl)-1,2,5-thiadiazolidin-3-one 1,1-dioxide] | ≤ 1000 | ≤ 1000
